Measurements taken from patent US8143278B2, “Organic compounds” (Novartis AG, priority 2006, dated 2012).
pIC50: −log10 of the molar value.

Tests used:
CYP11B1 = target: T1, CYP11B1 (Homo sapiens, UniProt P15538); assay: in vitro CYP11B1 inhibition in NCI-H295R cells; assay type: cell-based; settings: read-out: % inhibition CYP11B1 @ 10 nM
T1 construct: Thus, the NCI-H295R cells have CYP11B1 (steroid 11 p-hydroxylase); host or cells: NCI-H295R human adrenocortical carcinoma cells
T1 sequence (P15538 25-503): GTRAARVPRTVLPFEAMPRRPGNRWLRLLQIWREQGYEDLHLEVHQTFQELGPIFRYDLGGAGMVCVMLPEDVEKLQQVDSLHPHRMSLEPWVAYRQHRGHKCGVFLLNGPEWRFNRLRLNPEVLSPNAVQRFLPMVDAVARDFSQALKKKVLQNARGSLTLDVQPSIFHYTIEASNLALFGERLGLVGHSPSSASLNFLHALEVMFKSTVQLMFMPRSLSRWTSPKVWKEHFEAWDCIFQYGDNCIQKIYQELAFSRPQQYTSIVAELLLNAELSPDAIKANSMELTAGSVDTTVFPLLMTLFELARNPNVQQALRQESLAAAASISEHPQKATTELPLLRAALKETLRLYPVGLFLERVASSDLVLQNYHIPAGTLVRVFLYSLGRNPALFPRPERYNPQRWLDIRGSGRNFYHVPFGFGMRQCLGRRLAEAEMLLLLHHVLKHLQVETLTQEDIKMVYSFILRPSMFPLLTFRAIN
Source text: The cell line NCI-H295R was originally isolated from an adrenocortical carcinoma and has been characterized in the literature through the stimulable secretion of steroid hormones and the presence of the enzymes essential for steroidogenesis. Thus, the NCI-H295R cells have CYP11B1 (steroid 11 p-hydroxylase). The cells show the physiological property of zonally undifferentiated human foetal adrenocortical cells which, however, have the capacity to produce the steroid hormones which are formed in the three, phenotypically distinguishable zones in the adult adrenal cortex. […]
The excretion of aldosterone, cortisol, corticosterone and estradiol/estrone into the culture medium can be detected and quantified by commercially available, specific monoclonal antibodies in radioimmunoassays in accordance with the manufacturer's instructions.
Inhibition of the release of certain steroids can be used as a measure of the respective enzyme inhibition by the added test compounds. The dose-dependent inhibition of enzymic activity by a compound is calculated by means of an inhibition plot which is characterized by an IC50. […]

aldosterone synthase = target: T2, aldosterone synthase (Homo sapiens, UniProt P19099); assay: in vitro aldosterone synthase inhibition (ASI cell), aldosterone production in NCI-H295R cells; assay type: cell-based; settings: 1 μM Ang II, 24 hr
T2 construct: host or cells: NCI-H295R human adrenocortical carcinoma cells
T2 sequence (P19099 25-503): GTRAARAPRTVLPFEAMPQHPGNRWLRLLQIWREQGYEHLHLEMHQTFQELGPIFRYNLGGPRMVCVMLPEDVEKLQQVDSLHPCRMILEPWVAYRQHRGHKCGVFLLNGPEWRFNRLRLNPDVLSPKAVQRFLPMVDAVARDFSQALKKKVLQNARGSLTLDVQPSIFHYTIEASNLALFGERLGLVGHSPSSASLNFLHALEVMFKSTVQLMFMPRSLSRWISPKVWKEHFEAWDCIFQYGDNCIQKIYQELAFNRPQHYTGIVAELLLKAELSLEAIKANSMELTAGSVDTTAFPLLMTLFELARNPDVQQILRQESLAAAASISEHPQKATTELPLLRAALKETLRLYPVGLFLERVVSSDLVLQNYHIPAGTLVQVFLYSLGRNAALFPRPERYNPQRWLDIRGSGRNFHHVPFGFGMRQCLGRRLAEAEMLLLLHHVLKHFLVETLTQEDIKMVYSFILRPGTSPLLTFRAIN
Source text: Human adrenocortical carcinoma NCI-H295R cell line is obtained from American Type Culture Collection (Manassas, Va.). Insulin/transferrin/selenium (ITS)-A supplement (100×), DMEM/F-12, antibiotic/antimycotic (100×), and fetal calf serum (FCS) are purchased from Gibco (Grand Island, N.Y.). Anti-mouse PVT scintillation proximity assay (SPA) beads and NBS 96-well plates are obtained from Amersham (Piscataway, N.J.) and Corning (Acton, Mass.), respectively. Solid black 96-well flat bottom plates are purchased from Costar (Corning, N.Y.). Aldosterone and angiotensin (Ang II) are purchased from Sigma (St. Louis, Mo.). D[1,2,6,7-^3H(N)]aldosterone was acquired from PerkinElmer (Boston, Mass.). Nu-serum was a product of BD Biosciences (Franklin Lakes, N.J.). The NADPH regenerating system, dibenzylfluorescein (DBF), and human aromatase Supersomes® are obtained from Gentest (Woburn, Mass.).
For in vitro measurement of aldosterone activity, human adrenocortical carcinoma NCI-H295R cells are seeded in NBS 96-well plates at a density of 25,000 cells/well in 100 μl of a growth medium containing DMEM/F12 supplemented with 10% FCS, 2.5% Nu-serum, 1 μg ITS/ml, and 1× antibiotic/antimycotic. The medium is changed after culturing for 3 days at 37° C. under an atmosphere of 5% CO2/95% air. On the following day, cells are rinsed with 100 μl of DMEM/F12 and incubated with 100 μl of treatment medium containing 1 μM Ang II and a compound at different concentrations in quadruplicate wells at 37° C. for 24 hr. At the end of incubation, 50 μl of medium is withdrawn from each well for measurement of aldosterone production by an RIA using mouse anti-aldosterone monoclonal antibodies.
Measurement of aldosterone activity can also be performed using a 96-well plate format. Each test sample is incubated with 0.02 μCi of D-[1,2,6,7-^3H(N)]aldosterone and 0.3 μg of anti-aldosterone antibody in phosphate-buffered saline (PBS) containing 0.1% Triton X-100, 0.1% bovine serum albumin, and 12%, glycerol in a total volume of 200 μl at room temperature for 1 hr. Anti-mouse PVT SPA beads (50 μl) are then added to each well and incubated overnight at room temperature prior to counting in a Microbeta plate counter. The amount of aldosterone in each sample is calculated by comparing with a standard curve generated using known quantities of the hormone.
Full concentration-response curves of the test compound are performed at least 3 times. The IC50 values are derived using a non-linear least squares curve-fitting program from Microsoft XLfit.

Question: Which inhibition at 0.01 µM (CYP11B1) does the source give for `COc1ccc2c(c1)NC(=O)C(C)(C)C2n1ccnc1` (racemic) [Compound 6, 7-methoxy-4-Imidazol-1-yl-3,3-dimethyl-3,4-dihydro-1H-quinolin-2-one] here?
Answer: The inhibition at 0.01 µM was 84%.

Question: And the pIC50 (aldosterone synthase)?
Answer: The pIC50 was 7.47.

Question: How did the pIC50 (aldosterone synthase) turn out when `Cc1noc(-c2cncn2C2c3ccccc3NC(=O)C2(C)C)n1` (racemic) [Compound 10, 3,3-Dimethyl-4-[5-(3-methyl-[1,2,4]oxadiazol-5-yl)-imidazol-1-yl]-3,4-dihydro-1H-quinolin-2-one] was run?
Answer: Its pIC50 is 6.86.

Question: How did the pIC50 (aldosterone synthase) turn out when `CC1(C)C(=O)Nc2cccc(Cl)c2C1n1cncc1CO` (racemic) [Compound 8, 5-Chloro-4-(5-hydroxymethyl-imidazol-1-yl)-3,3-dimethyl-3,4-dihydro-1H-quinolin-2-one] was run?
Answer: The pIC50 was 8.15.

Question: How did the pIC50 (aldosterone synthase) turn out when `Cc1cncn1C1c2ccc(F)cc2NC(=O)C1(C)C` (racemic) [Compound 9, 7-Fluoro-3,3-dimethyl-4-(5-methyl-imidazol-1-yl)-3,4-dihydro-1H-quinolin-2-one] was run?
Answer: Its pIC50 is 7.92.

Question: Which inhibition at 0.01 µM (CYP11B1) does the source give for `CN1C(=O)C(C)(C)C(n2ccnc2)c2ccccc21` (racemic) [Compound 7, 4-Imidazol-1-yl-1,3,3-trimethyl-3,4-dihydro-1H-quinolin-2-one] here?
Answer: Its inhibition at 0.01 µM is 100%.

Question: And the pIC50 (aldosterone synthase)?
Answer: The pIC50 was 8.00.
